Molecules are shown by their SMILES. A value given as a limit tells only on which side of the number the result lay.

The nature of series [1]: Bioavailability/bioequivalence study of 3,4-DAP phosphate salt vs free base in healthy subjects (Example A). The class given is in vivo, human. The method, then:
The primary objectives of the study were to evaluate the clinical tolerance of a single 10 mg dose (equivalent base) oral intake of 3,4-DAP salt in five healthy subjects and to determine the relative bioequivalence of a single 20 mg oral dose of 3,4-DAP administered as a salt or as a free base to 26 healthy subjects. The secondary objectives were to study pharmacokinetic parameters (elimination half and elimination constant), to compare the biological tolerance of both a 20 mg oral intake of 3,4-DAP as a free base and as a salt, and to measure QTcf intervals at expected Cmax.
This was an open and uncontrolled study of the clinical tolerance to a low dose of the phosphate salt. Subjects were hospitalized from 8 am to 4 pm after fasting since midnight the previous night. At 8:30 am, one 10 mg 3,4-DAP phosphate tablet was administered with a glass of water in the presence of a supervising nurse. During their 8-hour stay, heart rate was continuously monitored, blood pressure was measured on eight occasions (including baseline) and three urine samples were taken.
This was a double-blind, randomized 2-way cross-over trial. The two administration periods were separated by a wash-out of at least 3 days and not more than 10 days. At the beginning of each period, subjects were hospitalized at 8 am (while fasting since midnight) for at least 12 hours. At their arrival a urinary sample was taken and avenous catheter was inserted into an antecubital vein. A first blood sample was drawn 15 min before drug intake. At around 8:30 am drug was administered (as the phosphate salt or free base according to randomization) with a glass of water under the supervision of a nurse and subjects remained seated for 15 min. Group A received two 10 mg tablets of 3,4-DAP phosphate. Group B received two 10 mg capsules of 3,4-DAP as a free base.
Two 5 mL blood samples were drawn at the following times after drug administration: 5 min, 10 min, 15 min, 20 min, 30 min, 45 min, 60 min, 75 min, 90 min, 120 min, 240 min, 360 min, 480 min, and 660 min. At each sampling time two 5 mL samples were drawn on […] heparinized tubes. They were immediately centrifuged at room temperature. Serum was then separated and dispatched into three clearly identified aliquots which were frozen at −20° C. […]
12-lead ECGs (50 mm/s, 2 cm/mV) were recorded over 1 minute three times prior to drug intake (HR-RR, QT and QTcf were averaged to determine baseline values) and then at 15, 20, 30, 45, 60, 75, 90, 120, and 240 min post dose. ECG parameters were recorded by using Cardionics™ ECG/VCG software (version 3.3.0). Blood pressure was measured at 120 min post dosing. […]
An HPLC-electrochemical detection system was used to assay 3,4-DAP in serum samples. […] The extracted sample was analyzed by HPLC coupled with coulemetric detection. […]

The test system of the next series is human hepatocytes. The experiment in a line: In vitro metabolism of 14C-amifampridine in human hepatocytes (Example 3). The class given is in vitro ADME. To be noted: multiple donors. The method, then: The objective of this hepatocyte study was to determine the extent of metabolism, complete metabolic profile and metabolite characterization of amifampridine phosphate in several species with ^14C-amifampridine phosphate for a cross species comparison. The following procedures were used to study the metabolism in rat (Example 1), dog (Example 2), and human hepatocytes (Example 3).
The cryopreserved hepatocytes were removed from storage, quickly thawed in a 37° C. water bath for 1 to 2 min, and transferred to a 50 ml tube containing pre-warmed InVitroGRO HT medium (Celsis Inc., Baltimore). The cell suspension was mixed by gentle inversion and the cells were pelleted by centrifugation at 50 to 75×g for 5 min. The supernatant medium was removed and the cells were resuspended in Williams' Medium E. Hepatocyte viability was assessed by using trypan blue exclusion. Hepatocyte density was determined by counting cells with a hemocytometer and the density was adjusted with Williams' Medium E to achieve a final density of 1,000,000 cells/mL. […] The supernatant medium was removed and the cells were resuspended in cold Williams' Medium E. The cell density was then determined using a hemocytometer and the density was adjusted with Williams' Medium E to achieve a final density of 1,000,000 cells/mL. […]

`Nc1ccncc1N` [3,4-DAP, 3,4-diaminopyridine]: the “differences in Cmax, AUC and t1/2 between subjects” value in series [1] (between patients) is on record as “up to 10 fold”. For the same molecule, the Cmax in series [1] (human, serum, as the phosphate salt, 20 mg oral, read-out: Cmax, range between patients) lay in the range of 13 to 167 ng/mL. In addition, the half-life in series [1] (human, serum, phosphate salt or free base, 20 mg oral) was below 2.6 h. The “coefficient of variations for AUCs and Cmax” value in series [1] (phosphate salt or free base, 20 mg oral) is “exceeding 30%”. Also, in the series with human hepatocytes, the “formation of single major acetylated amifampridine metabolite” value is listed as “variable”.

(Values after US11274332B2, “Methods of administering 3,4-diaminopyridine” (SERB SA, priority 2011, dated 2022).)
